In patent US6642036B2, “Sinapoylglucose:malate sinapoyltransferase form malate conjugates from benozic acid glucosides” (E. I. Du Pont de Nemours and Company, priority 2000, dated 2003):
Read-outs that look alike come from different tables or passages of the source.

What was measured:
[1] = target: T1, recombinantly produced, refolded SMT protein (Arabidopsis thaliana, UniProt Q8RUW5, A20T/S19M); format: biochemical; settings: for acceptance as acyl acceptor with sinapoylglucose or PHBA 1-O-acylglucoside: 200 ng SMT, 500 μM glucose ester, 400 mM alcohol, pH 6.2, 30° C. for 16 h
T1 construct: consisting primarily of recombinant mature Arabidopsis SMT and some minor protein contaminants; initiator Met (start codon added in place of the signal peptide) (N); made in house
Method: Sinapoyl glucose was purified from the sng1 mutant of Arabidopsis as described by Lorenzen et al. (Plant Physiology 112:1625-1630 (1996)). The SMT assay contained 12.5 μL of 0.5 mM sinapoyl glucose in 100 mM potassium phosphate buffer (pH 7.5), 5 μL of 100 mM potassium phosphate buffer (pH 6.0), 5 μL of 1 M malic acid in potassium phosphate buffer (pH 6.0) and 5 μL of E. coli extract corresponding to 100 μg of protein. Assays were incubated for 14 h at 30° C., stopped by addition of 30 μL of methanol and stored at −70° C. before analysis by HPLC. Enzyme assays were analyzed by HPLC on a Nova-Pak® Pak® C18 column (60 Å pore size, […] particle size) using a gradient from 6% acetonitrile, 1.5% phosphoric acid to 48% acetonitrile, followed by 1.5% phosphoric acid and UV detection at 335 nm.
Approximately 250 ng of recombinantly produced, refolded SMT protein was incubated with 200 mM malate, 0.1 mM PHBA 1-O-acyl glucoside in a 25 μL reaction in 100 mM potassium phosphate buffer (pH 6.2) for 12 h at 30° C. Reaction products were separated by HPLC as described in the General Methods. […] The compound was analyzed by LC-MS as described in the General Methods.
The activity of the SMT enzyme was determined using sinapoyl glucose and L-lactate as follows. 1 μg of partially purified recombinant SMT protein was incubated with 500 μM sinapoyl glucose in 100 mM potassium phosphate buffer (pH 6.2) in the absence or presence of 200 mM L-lactate. Enzyme reactions were incubated at 30° C. for 12 h. Reaction products were analyzed by HPLC as described in the General Methods.
Activity of the SMT enzyme was determined using sinapoylglucose or PHBA 1-O-acylglucoside and methanol, ethanol and isopropanol. Briefly, 200 ng of partially purified recombinantly produced SMT protein was incubated with 500 μM of the glucose ester of sinapic acid or PHBA in 100 mM potassium phosphate buffer (pH 6.2) in the absence or presence of 400 mM of the respective alcohols in 100 μL enzyme reactions. Enzyme reactions were incubated at 30° C. for 16 h. All reaction products were analyzed by HPLC as described in Example 1.

[2] = target: SMT (sinapoylglucose:malate sinapoyltransferase) (Arabidopsis thaliana, UniProt Q8RUW5, A20T/S19M)
Method: Sinapoyl glucose was purified from the sng1 mutant of Arabidopsis as described by Lorenzen et al. (Plant Physiology 112:1625-1630 (1996)). […] Assays were incubated for 14 h at 30° C., stopped by addition of 30 μL of methanol and stored at −70° C. before analysis by HPLC. Enzyme assays were analyzed by HPLC on a Nova-Pak® Pak® C18 column (60 Å pore size, […] particle size) using a gradient from 6% acetonitrile, 1.5% phosphoric acid to 48% acetonitrile, followed by 1.5% phosphoric acid and UV detection at 335 nm.

O=C(O)CC(O)C(=O)O = experiment: purified protein, by the assay type; settings: other: 30° C., 500 μM sinapoyl glucose, 100 mM potassium phosphate buffer (pH 6.8), 50 ng partially purified SMT, Hofstee plot
[3] = target: T2, sinapoyl glucose and L-malate (SMT reaction) (Arabidopsis thaliana, UniProt Q8RUW5, A20T/S19M); experiment: Turnover number of purified recombinant SMT folded from inclusion bodies; format: biochemical; settings: 30° C., 100 mM potassium phosphate buffer (pH 6.2), 500 μM sinapoyl glucose, 200 mM L-malate
T2 construct: consisting primarily of recombinant mature Arabidopsis SMT and some minor protein contaminants; initiator Met (start codon added in place of the signal peptide) (N); made in house
Method: As judged by SDS-PAGE and Coomassie-blue staining, the folded recombinant protein was at least 80% pure and the final yield of active SMT from the 100 mL folding reaction was ˜6 μg, corresponding to ˜0.52% of the original inclusion body material. The turnover number for purified recombinant SMT folded from inclusion bodies was ˜18/sec at 30° C., which compares favorably to the 11.5/sec value that was previously reported for the authentic protein purified from radish (Graewe et al., Planta 187:236-241 (1992)). For this determination the 25 μL enzyme reaction contained 100 mM potassium phosphate buffer (pH 6.2), 500 μM sinapoyl glucose and 200 mM L-malate.

## C[C@H](O)C(=O)O [L-lactate]
[1]; 1 μg SMT, 500 μM sinapoyl glucose, 200 mM L-lactate, pH 6.2, 30° C. for 12 h, product m/z agrees with sinapoyl lactate
  acceptance as acyl acceptor with sinapoyl glucose: a new compound that absorbs at 335 nm is produced

## O=C(O[C@@H]1O[C@H](CO)[C@@H](O)[C@H](O)[C@H]1O)c1ccc(O)cc1 [PHBA 1-O-acyl glucoside]
[1]; 250 ng SMT, 200 mM malate, 0.1 mM PHBA 1-O-acyl glucoside, pH 6.2, 12 h at 30° C., product m/z agrees with PHBA malate
  conversion by SMT in the presence of malate: converted to a new compound
[2]; 30° C., 200 mM malate, 500 ng partially purified SMT, y-intercept of regression curve
  Vmax of SMT for PHBA 1-O-acyl glucoside: 0.2482 μmol min^−1 mg^−1 protein
[2]; read-out: Km of SMT for PHBA 1-O-acyl glucoside, 30° C., 200 mM malate, 100 mM potassium phosphate buffer (pH 6.8), 500 ng partially purified SMT, PHBA malate synthesis, Hofstee plot
  Km: ~354 µM

## CCO [ethanol]
[1]
  acceptance as acyl acceptor with sinapoylglucose or PHBA 1-O-acylglucoside: production of methyl, ethyl and isopropyl esters of sinapic acid and PHBA

## CC(C)O [isopropanol]
[1]
  acceptance as acyl acceptor with sinapoylglucose or PHBA 1-O-acylglucoside: production of methyl, ethyl and isopropyl esters of sinapic acid and PHBA

## CO [methanol]
[1]
  acceptance as acyl acceptor with sinapoylglucose or PHBA 1-O-acylglucoside: production of methyl, ethyl and isopropyl esters of sinapic acid and PHBA

## COc1cc(/C=C/C(=O)O[C@@H]2O[C@H](CO)[C@@H](O)[C@H](O)[C@H]2O)cc(OC)c1O [sinapoyl glucose]
[2]; 30° C., 200 mM malate, 50 ng partially purified SMT, y-intercept of regression curve
  Vmax of SMT for sinapoyl glucose: 21.315 μmol min^−1 mg^−1 protein
[2]; read-out: Km of SMT for sinapoyl glucose, pH 6.8
  Km: ~541 µM

## SMT (sinapoylglucose:malate sinapoyltransferase) (Arabidopsis thaliana; A20T/S19M)
O=C(O)CC(O)C(=O)O
  Km: 42000 µM

B1: purified recombinant SMT: recombinant mature Arabidopsis sinapoylglucose:malate sinapoyltransferase (SEQ ID NO:7) folded from E. coli inclusion bodies (protein)
chain: MTSIVKFLPGFEGPLPFELETGYIGIGEDENVQFFYYFIKSENNPKEDPLLIWLNGGPGCSCLGGIIFENGPVGLKFEVFNGSAPSLFSTTYSWTKMANIIFLDQPVGSGFSYSKTPIDKTGDISEVKRTHEFLQKWLSRHPQYFSNPLYVVGDSYSGMIVPALVQEISQGNYICCEPPINLQGYMLGNPVTYMDFEQNFRIPYAYGMGLISDEIYEPMKRICNGNYYNVDPSNTQCLKLTEEYHKCTAKINIHHILTPDCDVTNVTSPDCYYYPYHLIECWANDESVREALHIEKGSKGKWARCNRTIPYNHDIVSSIPYHMNNSISGYRSLIYSGDHDIAVPFLATQAWIRSLNYSPIHNWRPWMINNQIAGYTRAYSNKMTFATIKGGGHTAEYRPNETFIMFQRWISGQPL
[3]
  turnover number: ~18 s⁻¹
